These results are taken from US10718770B2, “Methods for screening compounds for treating or preventing a viral infection or a virus-related condition” (ABIVAX, priority 2015, dated 2020).

Assay [1] concerns the target T1, CBC complex (CBP20 and CBP80) (Homo sapiens, UniProt P52298+Q09161).
T1 construct: made in house
T1 sequence (P52298 1-156): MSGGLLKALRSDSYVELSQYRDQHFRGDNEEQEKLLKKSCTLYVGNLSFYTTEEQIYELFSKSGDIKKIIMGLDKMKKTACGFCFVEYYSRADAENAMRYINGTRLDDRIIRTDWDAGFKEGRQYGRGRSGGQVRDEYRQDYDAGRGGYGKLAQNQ
T1 sequence (Q09161 1-790): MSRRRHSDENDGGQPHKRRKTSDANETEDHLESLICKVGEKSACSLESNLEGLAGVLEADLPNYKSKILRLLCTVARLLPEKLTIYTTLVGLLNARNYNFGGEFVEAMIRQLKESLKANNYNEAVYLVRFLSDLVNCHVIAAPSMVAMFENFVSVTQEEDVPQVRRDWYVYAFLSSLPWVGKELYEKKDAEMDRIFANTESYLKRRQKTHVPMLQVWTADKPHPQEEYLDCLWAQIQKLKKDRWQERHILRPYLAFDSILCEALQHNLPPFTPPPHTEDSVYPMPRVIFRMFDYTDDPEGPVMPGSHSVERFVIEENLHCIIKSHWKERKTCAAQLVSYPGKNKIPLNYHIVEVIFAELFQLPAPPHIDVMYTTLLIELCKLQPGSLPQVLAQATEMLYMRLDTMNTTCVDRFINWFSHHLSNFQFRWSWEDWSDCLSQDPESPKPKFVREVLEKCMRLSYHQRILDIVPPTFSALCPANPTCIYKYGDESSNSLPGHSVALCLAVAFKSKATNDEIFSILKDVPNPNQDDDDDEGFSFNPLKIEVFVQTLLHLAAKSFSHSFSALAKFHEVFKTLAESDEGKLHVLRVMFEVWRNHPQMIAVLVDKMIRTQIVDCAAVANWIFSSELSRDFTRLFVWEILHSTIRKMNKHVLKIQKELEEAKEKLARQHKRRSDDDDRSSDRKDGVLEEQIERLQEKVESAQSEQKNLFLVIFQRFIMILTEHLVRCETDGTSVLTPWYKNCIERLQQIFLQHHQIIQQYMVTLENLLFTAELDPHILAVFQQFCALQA
Put plainly: UV crosslinking of purified recombinant CBP20 and CBP80 (CBC complex), SDS-PAGE / Western blot. The assay is classed as binding. The note with it: purified recombinant CBP20 and CBP80, after UV irradiation. How it is done:
FIG. 2. Compound 1 interacts with the CBC complex. Purified recombinant CBP20 and CBP80 proteins were incubated with increasing concentrations of Compound 1 (left panel) or Compound 1-N-glucuronide (right panel, Gluc) and treated for 30 minutes with UV light. […] Left panel: from left to right, incubation with 0.1 (lane 1), 1 (lane 2), 10 (lane 3) and 50 μM (lane 4) of Compound 1. Right panel: from left to right, incubation with 1 (lane 1), 10 (lane 2), 50 (lane 3), 100 μM (lane 4) and 200 μM (lane 5) of Compound 1-N-glucuronide.
FIG. 3. Compound 1 promotes the interaction of CBP20 with CBP80. A) Purified recombinant CBP20 and CBP80 proteins were incubated with the indicated concentrations of Compound 1-N-glucuronide and they were either untreated (lanes 1-3), treated during 15 min (lanes 4-6) or 30 min (lanes 7-9) with UV light. Proteins were analyzed by SDS-PAGE and stained with Coomassie blue. […] B) Recombinant human CBC was incubated with Compound 1-N-glucuronide and treated with UV for 15 min. After crosslinking the proteins were resolved in SDS-PAGE and stained with Coomassie blue (left panel). Stained proteins (Band 4, Band 5 and Band 7) were digested with trypsin and analysed by mass spectrometry. […]
For orientation: A western blot detects proteins with antibodies after separation by electrophoresis.

Another assay concerns the target T2, Recombinant human CBC (Homo sapiens, UniProt P52298+Q09161).
T2 construct: made in house
T2 sequence (P52298 1-156): T1 sequence (P52298 1-156)
T2 sequence (Q09161 1-790): T1 sequence (Q09161 1-790)
Put plainly: Gel-mobility shift assay: binding of capped RNA to the CBC complex. The note with it: native gel; Compound 1 5-50 μM, Compound 1-N-glucuronide 5-100 μM, m7GpppG 12 mM. The method, then:
FIG. 4. […] Recombinant human CBC was incubated with a capped RNA substrate and analyzed by native gel electrophoresis in order to resolve the different RNA and RNA-protein complexes: free RNA (lane 1), and CBC-RNA complexes (lanes 2-10) in the presence of 12 mM of m7GppG (lanes 10) or 5 μM, 10 μM or 50 μM of Compound 1 (lanes 2-4, respectively) or 5 μM, 10 μM, 50 μM or 100 μM of Compound 1-N-glucuronide ([…], respectively).
Gel-mobility shift assay in the presence of a m(7)GpppG cap analogue has been established according to the protocol described in Mazza et al. (Large-scale induced fit recognition of an m(7)GpppG cap analogue by the human nuclear cap-binding complex. EMBO J. 21, 5548-5557 (2002)).
Recombinant human CBC was incubated with a capped RNA substrate and analyzed by native gel electrophoresis in order to resolve the different RNA and RNA-protein complexes according to Mazza et al. (Large-scale induced fit recognition of an m(7)GpppG cap analogue by the human nuclear cap-binding complex. EMBO J. 21, 5548-5557 (2002).

The target of assay [2] is SR protein splicing factor SRSF1 (Homo sapiens, UniProt Q07955). The note with it: cited from earlier work.
SR protein splicing factor SRSF1, sequence (Q07955 whole entry): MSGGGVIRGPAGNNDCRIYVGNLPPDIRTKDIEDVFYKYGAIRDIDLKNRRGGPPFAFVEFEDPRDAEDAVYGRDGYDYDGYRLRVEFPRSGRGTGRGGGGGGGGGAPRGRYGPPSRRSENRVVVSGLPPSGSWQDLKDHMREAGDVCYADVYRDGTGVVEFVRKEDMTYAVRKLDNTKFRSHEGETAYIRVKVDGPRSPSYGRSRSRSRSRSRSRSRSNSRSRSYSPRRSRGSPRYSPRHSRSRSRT

On to `O=C(O)[C@H]1O[C@@H](N(c2ccc(OC(F)(F)F)cc2)c2ccc3cccc(Cl)c3n2)[C@H](O)[C@@H](O)[C@@H]1O` [Compound 1-N-glucuronide, 8-chloro-N-glucuronide-N-(4-(trifluoromethoxy)phenyl)quinolin-2-amine], for which the “covalent bridging (UV crosslinking) between CBP20 and CBP80” value in assay [1] is “promote UV crosslinking of CBP20 and CBP80”. The “competition for binding of capped RNA to the CBC complex” value on Recombinant human CBC is recorded as “neither Compound 1 nor Compound 1-N-glucuronide interfere”.

Take `Cc1c2ccnc(Cl)c2cc2c3cn(C)ccc-3nc12` [IDC16, 10-chloro-2,6-dimethyl-2H-pyrido[3′,4′:4,5]pyrrolo[2,3-g]isoquinoline]: in assay [2] (HIV-1), the “production of key viral proteins” value is on record as “suppresses the production of key viral proteins”. Besides, in assay [2], the “splicing enhancer activity of SRSF1” value is given as “interfere with splicing enhancer activity”.

Turning to `Cn1c[n+]([C@@H]2O[C@H](COP(=O)(O)OP(=O)([O-])OP(=O)(O)OC[C@H]3O[C@@H](n4cnc5c(=O)[nH]c(N)nc54)[C@H](O)[C@@H]3O)[C@@H](O)[C@H]2O)c2nc(N)[nH]c(=O)c21` [m^7GpppG, reference compound], the “competition for binding of capped RNA to the CBC complex” value on Recombinant human CBC is given as “competed”.
